Target: T1, chicken P2X7 receptor (ckP2X7 WT) (Gallus gallus, UniProt A0A8V1A1T0)
T1 construct: gene P2RX7; ckP2X7 WT (NCBI XP_001235163), expressed in HEK-293 cells
Format: cell-based

T1 sequence (A0A8V1A1T0 entry or part of it): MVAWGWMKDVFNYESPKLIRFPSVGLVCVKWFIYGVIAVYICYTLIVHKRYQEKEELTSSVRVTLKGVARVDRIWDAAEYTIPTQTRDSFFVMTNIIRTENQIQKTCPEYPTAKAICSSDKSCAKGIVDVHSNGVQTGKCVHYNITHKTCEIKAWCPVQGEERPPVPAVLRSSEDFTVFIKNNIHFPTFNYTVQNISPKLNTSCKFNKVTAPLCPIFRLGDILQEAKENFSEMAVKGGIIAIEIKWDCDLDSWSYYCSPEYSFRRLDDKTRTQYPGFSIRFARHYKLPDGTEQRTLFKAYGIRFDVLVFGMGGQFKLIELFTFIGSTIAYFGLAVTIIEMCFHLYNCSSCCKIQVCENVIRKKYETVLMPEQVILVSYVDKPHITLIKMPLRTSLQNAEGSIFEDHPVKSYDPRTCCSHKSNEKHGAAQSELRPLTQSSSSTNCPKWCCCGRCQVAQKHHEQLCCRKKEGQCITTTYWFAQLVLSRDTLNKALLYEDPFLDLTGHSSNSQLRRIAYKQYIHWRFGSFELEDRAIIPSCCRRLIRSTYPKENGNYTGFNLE

Nc1ncnc2c1ncn2[C@@H]1O[C@H](COP(=O)(O)OP(=O)(O)OP(=O)(O)O)[C@@H](O)[C@H]1O [ATP]
whole-cell patch clamp, ATP-evoked currents in transfected HEK-293 cells: ATP activated biphasic currents and TNP-ATP blocked ATP-dependent currents

From publication PMC5638823, “Structural insights into the competitive inhibition of the ATP-gated P2X receptor channel” (Nature Communications, 2017)
